Data as given in publication PMC6430387, “Vertebrate odorant binding proteins as antimicrobial humoral components of innate immunity for pathogenic microorganisms” (PLoS ONE, 2019).
Blank lines part the entries; values can stand above or below the compound they belong to.

Tests used:
Assay type in all cases: binding
[1] = target: T1, bovine OBP (6-His-bOBP) (Bos taurus, UniProt P07435); test: direct fluorescence titration
T1 construct: domain-swapped homodimer
T1 sequence (P07435 1-159): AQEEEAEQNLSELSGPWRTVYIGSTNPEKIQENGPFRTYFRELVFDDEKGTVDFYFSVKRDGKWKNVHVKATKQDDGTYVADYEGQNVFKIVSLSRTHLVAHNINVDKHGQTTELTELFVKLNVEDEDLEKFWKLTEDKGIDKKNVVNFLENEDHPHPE

[2] = target: T2, porcine OBP (6-His-pOBP) (Sus scrofa, UniProt P81245); test: direct fluorescence titration
T2 construct: monomer
T2 sequence (P81245 1-157): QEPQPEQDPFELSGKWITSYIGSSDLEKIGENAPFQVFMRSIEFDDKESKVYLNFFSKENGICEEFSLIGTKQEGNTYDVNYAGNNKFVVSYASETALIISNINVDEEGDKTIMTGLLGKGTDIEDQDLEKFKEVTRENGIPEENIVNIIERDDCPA

[3] = target: T1, bovine OBP (6-His-bOBP); test: retention on OBP-Ni-NTA agarose filter; chromatography-MS; conditions: 10-40 μM ligand loaded; submillimolar immobilised OBP; uncoupled resin as control
[4] = target: T1, bovine OBP (6-His-bOBP); test: competitive displacement of 1-aminoanthracene, fluorescence; conditions: read-out: Kdapp
[5] = target: T2, porcine OBP (6-His-pOBP); test: as above; conditions: read-out: Kdapp
[6] = target: T2, porcine OBP (6-His-pOBP); test: retention on OBP-Ni-NTA agarose filter, chromatography-MS; conditions: 0.34 μM ligand loaded; submillimolar immobilised OBP
[7] = target: T2, porcine OBP (6-His-pOBP); test: retention on OBP-Ni-NTA agarose filter; eluate quantified; conditions: 5 and 10 μM ligand loaded; submillimolar immobilised OBP; uncoupled resin as control

SMILES: Nc1cccc2cc3ccccc3cc12 [1-aminoanthracene]
Kd [1]: 720 nM | Kd [2]: 770 nM

% retention [3]: 63.2±5.8%-80.6±4.2%
SMILES: CCCC(=O)N[C@H]1CCOC1=O [C4AHL, N-butyryl-L-homoserine-lactone]

IC50 [4]: 3.7 µM | IC50 [5]: 770 nM
SMILES: CC(C)=CCC/C(C)=C/CC/C(C)=C/CO [farnesol]

% bound [6]: 89.2±2.4%
SMILES: CCCCCCCCCC(=O)CC(=O)N[C@H]1CCOC1=O [oxo-C12AHL, N-(3-oxododecanoil)-L-homoserine-lactone]

SMILES: Cn1c2cccc(=O)c-2nc2ccccc21 [pyocyanin]
% retention [7]: 66±13% and 85±15%
